Experiments:
[1] = system: Cama-1, SW527, BT483 and MCF-7; assay: Cell recovery by crystal violet staining, four breast tumor cell lines together; assay type: cell-based, human; conditions: 72 h; 5 μg/ml PGN, 50 μg/ml Poly IC or 10 μg/ml LPS; average of the four cell lines
Experimental: (§1) Cell recovery after treatment with TLR ligands was measured by crystal violet staining (Sigma-Aldrich). Cells were plated at 10^4 cells/well in 96 well plates. After 72 hours of culture either with or without TLR ligand, the cells were washed with PBS, fixed in 6% formaldehyde (Sigma-Aldrich) for 20 minutes, washed twice, and then stained with 0.1% crystal violet for 10 minutes. After washes and incubation in 1% SDS for 1 hour, the absorbance was read at 605 nm on a Vmax plate reader (Molecular Devices, Sunnyvale, Calif.). Annexin V staining was performed with an annexin-FITC apoptosis detection kit (BD Pharmingen, San Diego, Calif.) according to the manufacturer's instructions. Sub-diploid cells were detected by staining with 3 μg/mL propidium iodide (PI) (Molecular probes, Eugene, Oreg.), after overnight permeabilization in 70% ethanol. Fluorescence was analyzed by flow cytometry on a FACScalibur (Becton Dickinson, Mountain View, Calif.) equipped with a doublet-discrimination module and using Celiquest Pro software (Becton Dickinson).
Four human breast tumor cell lines, Cama-1, SW527, BT483 and MCF-7, were analyzed for cell death in response to Poly IC. Cells were cultured for 72 hours with 5 μg/ml PGN, 50 μg/ml Poly IC or 10 μg/ml LPS. Control cells were cultured with PBS. Cytotoxicity was assessed by crystal violet staining and expressed as a percent of control.
Furthermore, additional TLR ligands were tested to determine any possible effects on cellular toxicity. The ligands tested were PGN, LPS, Flagellin, R848 and CpG. Cells were cultured for 72 hours with 5 μg/ml PGN, 10 μg/ml LPS, 50 ng/ml flagellin, 6 μg/ml R848, 10 μg/ml CpG ODNs, or with PBS as control. Cell recovery was assessed by crystal violet staining and expressed as a percent of control.

[2] = system: Cama-1 cells; assay: BrdU incorporation and subdiploid DNA content by FACS; assay type: cell-based, human
Experimental: as §1
Two cell lines, the colon cancer cell line LS174T and the breast cancer cell line Cama-1, were analyzed for death and cell cycle changes. Cells were cultured for 48 hours in either the presence or absence of Poly IC (5 μg/ml). Following a 30-minute pulse with 1 μg/ml bromodeoxyuridine (BrdU), the cells were fixed overnight at 4° C. in 70% ethanol before staining with FITC-coupled anti-BrdU monoclonal antibody and 3 μg/ml propidium iodide. Cell death and the cell cycle were analyzed by flow cytometry (FACS). BrdU incorporation is a measure of proliferation, whereas propidium iodide staining allows the quantification of DNA content, in particular the subdiploid cell population undergoing apoptosis.
TLR3 was analyzed for its role in Poly IC induced apoptosis. Cama-1 cells were transfected with siRNA corresponding to either: an irrelevant sequence (Scr RNA; sequence: ACUAGUUCACGAGUCACCUtt) (SEQ ID NO: 21), or hTLR3 (sequence: CAGUGUUGAACCUUACCCAtt) (SEQ ID NO: 22). siRNA transfections were performed for 5 hours in 1 mL OptiMEM™ medium containing 3 μg/mL lipofectamine 2000 and 100 nM siRNA. Cells were then washed in phosphate buffered saline solution (PBS) and cultured for 72 hours in complete medium before subsequent 48 hour treatment with 5 μg/mL Poly IC. The cell cycle was then analyzed by FACS after staining with ethidium bromide, as described in Example 3.

[3] = system: eye tumors; assay: Eye tumor development in TRP-Tag/IFNαβγR−/− mice; assay type: in vivo, mouse; conditions: 100 μg/dose intravenous on days 21, 23, 25, 27 and 29
Experimental: We analyzed the effect of IFN on Poly IC induced apoptosis in vivo. TRP-Tag mice express SV40 T antigen in the retinal pigmented epithelium and typically develop eye tumors with complete penetrance within weeks from birth.
In these experiments, fourteen to sixteen TRP-Tag/IFNαβγR−/− mice per experiment (these are TPR-Tag mice that had been crossed to mice simultaneously deficient in the receptor for type I interferons (IFNαβR) and the receptor for type II interferon (IFNγR)) were treated on days 21, 23, 25, 27 and 29 by intravenous injections of either Poly IC (100 μg/dose) or PBS. The kinetics of visible eye tumor development was monitored 2-3 times per week.

[4] = system: SKBr3 cells; assay: Apoptosis analysis of SKBr3 cells; assay type: cell-based; conditions: for percentage of SKBr3 cells induced to apoptosis by Poly IC: summary statement
Experimental: We tried to further investigate whether any synergy exists between TLR3 ligands and type I IFN. The primary breast carcinoma cells SKBr3 were plated in 6 well plates at 3×10^5 cells per well. After overnight adherence, siRNA transfections were performed for 5 hours in OptiMEM medium (Life technologies) containing 3μg/mL lipofectamine 2000 (Invivogen) and 100 nM siRNA. Cells were transfected with either MOCK (water), TLR3 siRNA or PKR siRNA. Cells were then washed and cultured for 72 hours in complete medium before 24 hour treatment with 50 μg/ml Poly IC and apoptosis analysis.
In another experiment, we tried to determine whether IFN and Poly IC acted synergistically to induce apoptosis. SKBr3 cells were untreated or pre-treated with either 10 U/ml or 100 U/ml of a low dose mixture of IFN-α or IFN-β. Poly IC was administered in the following doses: 0, 0.5, 5 and 50 μg/ml for 48 hours.

polyinosinic-polycytidylic acid [Poly IC]
cell recovery, percent of control, on average [1]: 67.5%
percentage of cells with subdiploid DNA content ([2]; Cama-1, 48 h with 5 μg/ml Poly IC (4% before treatment)): 17%
percentage of cells that incorporated BrdU ([2]; Cama-1, 48 h with 5 μg/ml Poly IC (15% before treatment)): 2%
percentage of subdiploid cells ([2]; Cama-1 transfected with hTLR3 siRNA, 48 h with 5 μg/mL Poly IC): 3%
percentage of subdiploid cells ([2]; Cama-1 transfected with scrambled RNA, 48 h with 5 μg/mL Poly IC (from 2%)): 45%
delay of appearance of eye tumors compared to PBS [3]: up to 21 days
percentage of apoptotic cells ([4]; SKBr3, 0.5 μg/ml Poly IC 48 h, no IFN pre-treatment): 15%
percentage of apoptotic cells ([4]; SKBr3, 0.5 μg/ml Poly IC 48 h, pre-treated IFN-α/β 10 U/ml): 45%
percentage of apoptotic cells ([4]; SKBr3, 0.5 μg/ml Poly IC 48 h, pre-treated IFN-α/β 100 U/ml): 55%
percentage of apoptotic cells ([4]; SKBr3, 5 μg/ml Poly IC 48 h, no IFN pre-treatment): 20%
percentage of apoptotic cells ([4]; SKBr3, 5 μg/ml Poly IC 48 h, pre-treated IFN-α/β 10 U/ml): 55%
percentage of apoptotic cells ([4]; SKBr3, 5 μg/ml Poly IC 48 h, pre-treated IFN-α/β 100 U/ml): 60%
percentage of apoptotic cells ([4]; SKBr3, 50 μg/ml Poly IC 48 h, no IFN pre-treatment): 20%
percentage of apoptotic cells ([4]; SKBr3, 50 μg/ml Poly IC 48 h, pre-treated IFN-α/β 10 U/ml): 55%
percentage of apoptotic cells ([4]; SKBr3, 50 μg/ml Poly IC 48 h, pre-treated IFN-α/β 100 U/ml): 60%
Poly IC concentration at which cells become sensitive to apoptosis, IFN pre-treated versus non-pretreated cells ([4]; SKBr3, type I IFN pre-treatment): one hundred fold lower
percentage of apoptotic cells ([4]; SKBr3 MOCK group, 24 h, 50 μg/ml Poly IC, untreated 10%): 22%
percentage of apoptotic cells ([4]; SKBr3 PKR siRNA group, 24 h, 50 μg/ml Poly IC, untreated 12%): 22%
percentage of apoptotic cells ([4]; SKBr3 TLR3 siRNA group, 24 h, 50 μg/ml Poly IC, untreated 8%): 13%
percentage of SKBr3 cells induced to apoptosis by Poly IC ([4]; after type I IFN pre-treatment): 66%
percentage of SKBr3 cells induced to apoptosis by Poly IC ([4]; without type I IFN pre-treatment): 22%

— patent publication US20060147456A1, “Induction of apoptosis in toll-like receptor expressing tumor cells” (priority 2004, published 2006)
